Values of other authors in patent US20250074936A1, “A PROCESS FOR ISOLATION OF SAPONINS UTTROSIDE B AND UTTROSIDE A FROM SOLANUM NIGRUM LINN” (COUNCIL OF SCIENTIFIC AND INDUSTRIAL RESEARCH AN INDIAN …, priority 2022, published 2025).

How the values were obtained:
HeLa cells = settings: read-out: moderate cytotoxicity against HeLa cells, IC50
PC-12 = PC-12 cells; read-out: cytotoxicity towards PC-12, IC50
HCT-16 = HCT-16 cells; read-out: cytotoxicity towards HCT-16, IC50

CO[C@]1(CC[C@@H](C)COC2OC(CO)C(O)C(O)C2O)OC2C[C@H]3[C@@H]4CC[C@H]5C[C@@H](OC6OC(CO)C(OC7OC(CO)C(O)C(OC8OCC(O)C(O)C8O)C7OC7OC(CO)C(O)C(O)C7O)C(O)C6O)CC[C@]5(C)[C@H]4CC[C@]3(C)C2[C@@H]1C (stereo partly drawn) [uttroside A]
IC50 (HeLa cells): 15400 nM

C[C@H](CC[C@@]1(O)OC2C[C@H]3[C@@H]4CC[C@H]5C[C@@H](OC6OC(CO)C(OC7OC(CO)C(O)C(OC8OCC(O)C(O)C8O)C7OC7OC(CO)C(O)C(O)C7O)C(O)C6O)CC[C@]5(C)[C@H]4CC[C@]3(C)C2[C@@H]1C)COC1OC(CO)C(O)C(O)C1O (stereo partly drawn) [uttroside B]
IC50 (PC-12): 1200 nM
IC50 (HCT-16): 2330 nM
